Values of other authors as cited in publication PMC2483489 (Acta Crystallographica Section D: Biological Crystallography, 2006).

What was measured:
KDR = conditions: statement in words, no reference given
Flt-3 = conditions: statement in words, no reference given
Irk = conditions: statement in words, no reference given
c-Kit = conditions: ref Mol et al., 2004
[1] = test system: resistance mutants isolated from relapsed imatinib patients; conditions: ref Weisberg et al., 2006, Kantarjian et al.

SMILES | Binding to KDR (KDR) | Binding to Flt-3 (Flt-3) | Binding to Irk (Irk) | Binding to c-Kit (c-Kit) | Activity against imatinib-resistance mutants [1]
Cc1ccc(NC(=O)c2ccc(CN3CCN(C)CC3)cc2)cc1Nc1nccc(-c2cccnc2)n1 [Imatinib, imatinib] | does not bind | does not bind | does not bind | does bind | –
Cc1cn(-c2cc(NC(=O)c3ccc(C)c(Nc4nccc(-c5cccnc5)n4)c3)cc(C(F)(F)F)c2)cn1 [NVP-AMN107, nilotinib] | – | – | – | – | active against all but one of the resistance mutants
